Read-outs that look alike come from different tables or passages of the source.
Target: Nanoluciferase-BRD9 fusion protein (Homo sapiens (Human), UniProt Q9H8M2)
Test: SYO1 BRD9 NanoLuc degradation assay
Assay type: cell-based
Conditions: SYO-1 cells expressing 3×FLAG-NLuc-BRD9, 6 hours, read-out: SYO1 BRD9-NanoLuc degradation IC50
Protocol: Procedure: A stable SYO-1 cell line expressing 3×FLAG-NLuc-BRD9 was generated. On day 0 cells were seeded in 30 μL media into each well of 384-well cell culture plates. The seeding density was 8000 cells/well. […] Subsequently plates were incubated for 6 hours in a standard tissue culture incubator and equilibrated at room temperature for 15 minutes. Nanoluciferase activity was measured by adding 15 μL of freshly prepared Nano-Glo Luciferase Assay Reagent (Promega N1130), shaking the plates for 10 minutes and reading the bioluminescence using an EnVision reader.
DMSO treated cells are employed as High Control (HC) and 1 μM of a known BRD9 degrader standard treated cells are employed as Low Control (LC).

Nanoluciferase-BRD9 fusion protein, sequence (Q9H8M2 whole entry, the tested form may be a part): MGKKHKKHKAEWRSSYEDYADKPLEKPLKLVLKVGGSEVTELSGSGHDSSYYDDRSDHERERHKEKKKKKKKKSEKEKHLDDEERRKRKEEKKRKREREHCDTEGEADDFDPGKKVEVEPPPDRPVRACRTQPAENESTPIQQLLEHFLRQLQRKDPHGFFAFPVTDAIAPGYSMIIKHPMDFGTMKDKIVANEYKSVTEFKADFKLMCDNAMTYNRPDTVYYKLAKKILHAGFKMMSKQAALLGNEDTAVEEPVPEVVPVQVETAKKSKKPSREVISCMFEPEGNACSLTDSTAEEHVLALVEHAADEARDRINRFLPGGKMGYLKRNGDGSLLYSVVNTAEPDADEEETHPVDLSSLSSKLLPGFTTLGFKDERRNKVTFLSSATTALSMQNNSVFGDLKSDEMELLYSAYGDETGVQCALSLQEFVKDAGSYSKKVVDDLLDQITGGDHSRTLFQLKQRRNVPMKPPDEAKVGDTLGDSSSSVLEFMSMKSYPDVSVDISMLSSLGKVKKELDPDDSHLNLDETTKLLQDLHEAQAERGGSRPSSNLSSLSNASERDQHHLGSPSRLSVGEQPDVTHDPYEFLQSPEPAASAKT

With COc1cc(-c2cn(C)c(=O)c3cnncc23)cc(OC)c1CN1CCC(CN2CCC3(CC2)CC(Oc2ccc4c(c2)CN(C2CCC(=O)NC2=O)C4=O)C3)CC1 (stereo not drawn) [Compound D367] the DC50 (Table 5B) was less than 10 nM.

With COc1cc(-c2cn(C)c(=O)c3cnn(C)c23)cc(OC)c1CN1CCC2(CC1)CN(c1ccc3c(c1)C(=O)N(C1CCC(=O)NC1=O)C3=O)C2 (stereo not drawn) [Compound D413] the DC50 (Table 5C) was less than 10 nM.

COc1cc(-c2cn(C)c(=O)c3cnccc23)cc(OC)c1CN1CCC(c2cnn(C3CCC(=O)NC3=O)c2)CC1 (stereo not drawn) [Compound D393] showed a DC50 (Table 5C) of 10 to 100 nM.

COc1cc(-c2cc(C)c(=O)n(C)c2)cc(OC)c1CN1CCC2(CC1)CC(Oc1ccc3c(c1)C(=O)N(C1CCC(=O)NC1=O)C3=O)C2 (stereo not drawn) [Compound D332] was tested, and the DC50 (Table 5B) was less than 10 nM.

In the case of COc1cc(-c2cn(C)c(=O)c3cnccc23)cc(OC)c1CN(C)CC(=O)NCCN1Cc2cc3c(cc2C1)C(=O)N(C1CCC(=O)NC1=O)C3=O (stereo not drawn) [DD6], the DC50 (Table 5B) is reported as 10 to 100 nM.

For CCCn1cc(-c2cc(OC)c(CN3CCC4(C3)CN(c3ccc5c(c3)C(=O)N(C3CCC(=O)NC3=O)C5)C4)c(OC)c2)cc(C(F)F)c1=O (stereo not drawn) [Compound D401], the DC50 (Table 5C) was less than 10 nM.

COc1cc(-c2cc(C)c(=O)n(C)c2)cc(OC)c1CN1CCC2C(C1)CN2c1ccc2c(c1)C(=O)N(C1CCC(=O)NC1=O)C2=O (stereo not drawn) [Compound D338] was tested, and the DC50 (Table 5B) was less than 10 nM.

COc1cc(-c2cn(C)c(=O)c3cnccc23)cc(OC)c1CN1CCC(n2cc(COCCOc3ccc4c(c3)C(=O)N(C3CCC(=O)NC3=O)C4=O)nn2)CC1 (stereo not drawn) [Compound D290] showed a DC50 (Table 5B) of less than 10 nM.

COc1cc(-c2cn(C)c(=O)c3cn(C)nc23)cc(OC)c1CN1CC(CN2CCC3(CC2)CN(c2ccc4c(c2)C(=O)N(C2CCC(=O)NC2=O)C4)C3)C1 (stereo not drawn) [Compound D402] was tested, and the DC50 (Table 5C) was less than 10 nM.

In the case of Cc1cc(-c2ccc(N3CCN(c4ccc5c(c4)C(=O)N(C4CCC(=O)NC4=O)C5)CC3)cc2)cn(C)c1=O (stereo not drawn) [Compound D459], the DC50 (Table 5C) is reported as less than 10 nM.

Compound COc1cc(-c2cn(C)c(=O)c3cnccc23)cc(OC)c1CN1CC(n2cc(COC3CCN(c4ccc5c(c4)C(=O)N(C4CCC(=O)NC4=O)C5=O)CC3)nn2)C1 (stereo not drawn) [Compound D302] has a DC50 (Table 5B) of less than 10 nM.

In the case of COc1cc(-c2cn(C)c(=O)c(C)c2C)cc(OC)c1CN1CC(CN2CCC3(CC2)CN(c2ccc4c(c2)C(=O)N(C2CCC(=O)NC2=O)C4=O)C3)C1 (stereo not drawn) [Compound D345], the DC50 (Table 5B) is reported as less than 10 nM.

Compound COc1cc(C(=O)N2CCC3(CC2)CN(c2ccc4c(c2)C(=O)N(C2CCC(=O)NC2=O)C4)C3)cc(-c2cn(C)c(=O)c3cnccc23)c1 (stereo not drawn) [Compound D380] has a DC50 (Table 5C) of 10 to 100 nM.

For Cn1ccc2oc(C(=O)NC3CCN(c4ccc5c(c4)C(=O)N(C4CCC(=O)NC4=O)C5)CC3)cc2c1=O (stereo not drawn) [DD16], the DC50 (Table 5C) was 10 to 100 nM.

COc1cc(-c2cn(C)c(=O)c3cnccc23)cc(OC)c1CN1CCC(n2cc(COc3ccc4c(c3)C(=O)N(C3CCC(=O)NC3=O)C4=O)cn2)CC1 (stereo not drawn) [Compound D324] showed a DC50 (Table 5B) of less than 10 nM.

COc1cc(-c2cn(C)c(=O)c3cnccc23)cc(OC)c1CN1CCC(c2cc(COc3ccc4c(c3)C(=O)N(C3CCC(=O)NC3=O)C4=O)on2)CC1 (stereo not drawn) [Compound D322] showed a DC50 (Table 5B) of less than 10 nM.

COc1cc(-c2cn(C)c(=O)c3cnccc23)cc(OC)c1CN1CC(Oc2ccc3c(c2)C(=O)N(C2CCC(=O)N(COC(=O)[C@@H](N)C(C)C)C2=O)C3=O)C1 (stereo partly drawn) [Compound D381] gave a DC50 (Table 5C) of less than 10 nM.

With COc1cc(-c2cn(C)c(=O)c3cnccc23)cc(OC)c1CN1CCC(c2cc(=O)n(C3CCC(=O)NC3=O)c(C)n2)CC1 (stereo not drawn) [Compound D394] the DC50 (Table 5C) was greater than 1000 nM.

Work on COc1cc(-c2cn(C)c(=O)c3cncn23)cc(OC)c1CN1CC(CN2CCC3(CC2)CN(c2ccc4c(c2)CN(C2CCC(=O)NC2=O)C4=O)C3)C1 (stereo not drawn) [Compound D363] yielded a DC50 (Table 5B) of less than 10 nM.

Work on COc1cc(-c2cn(C)c(=O)cc2C)cc(OC)c1CN1CCN(c2ccc3c(c2)C(=O)N(C2CCC(=O)NC2=O)C3=O)CC1 (stereo not drawn) [Compound D436] yielded a DC50 (Table 5C) of less than 10 nM.

In the case of COc1cc(-c2cn(C)c(=O)c3cnccc23)cc(OC)c1CN(C)CCCCN1CCC2(C1)CN(c1ccc3c(c1)C(=O)N(C1CCC(=O)NC1=O)C3=O)C2 (stereo not drawn) [Compound D226], the DC50 (Table 5B) is reported as less than 10 nM.

COc1cc(-c2cn(C)c(=O)c3cnccc23)cc(OC)c1CN1CC2(C1)CN(C(=O)C#Cc1ccc3c(c1)C(=O)N(C1CCC(=O)NC1=O)C3=O)C2 (stereo not drawn) [Compound D81] was tested, and the DC50 (Table 5A) was less than 10 nM.

COc1cc(-c2cn(C)c(=O)c3cnccc23)cc(OC)c1CN1CC(CC(=O)N2CCC3(CC2)CN(c2ccc4c(c2)C(=O)N(C2CCC(=O)NC2=O)C4=O)C3)C1 (stereo not drawn) [Compound D180] gave a DC50 (Table 5B) of less than 10 nM.

For COc1cc(-c2cn(C)c(=O)c3cnccc23)cc(OC)c1CN1CCC(c2nc(COc3ccc4c(c3)C(=O)N(C3CCC(=O)NC3=O)C4=O)co2)CC1 (stereo not drawn) [Compound D325], the DC50 (Table 5B) was less than 10 nM.

COc1cc(-c2cn(C)c(=O)c3cnccc23)cc(OC)c1CN1CC(n2cc(CN3CC(Oc4ccc5c(c4)C(=O)N(C4CCC(=O)NC4=O)C5=O)C3)nn2)C1 (stereo not drawn) [Compound D300] showed a DC50 (Table 5B) of less than 10 nM.

Work on COc1cc(-c2cn(C)c(=O)c3cnccc23)cc(OC)c1CN1CC(S(=O)(=O)NCCOCCNc2cccc3c2C(=O)N(C2CCC(=O)NC2=O)C3=O)C1 (stereo not drawn) [Compound D45, 1-[[2,6-dimethoxy-4-(2-methyl-1-oxo-2,7-naphthyridin-4-yl)phenyl]methyl]-N-[2-(2-[[2-(2,6-dioxopiperidin-3-yl)-1,3-dioxoisoindol-4-yl]amino]ethoxy)ethyl]azetidine-3-sulfonamide] yielded a DC50 (Table 5A) of less than 10 nM.

With COc1cc(-c2cn(C)c(=O)c3cnccc23)cc(OC)c1CN1CC(CC(=O)N2CC3(C2)CN(c2ccc4c(c2)C(=O)N(C2CCC(=O)NC2=O)C4=O)C3)C1 (stereo not drawn) [Compound D195] the DC50 (Table 5B) was 10 to 100 nM.

In the case of COc1cccc(OC)c1CN1CCN(c2ccc3c(c2)C(=O)N(C2CCC(=O)NC2=O)C3)CC1 (stereo not drawn) [DD14], the DC50 (Table 5C) is reported as greater than 1000 nM.

In the case of COc1cc(-c2cn(C)c(=O)c3cnccc23)cc(OC)c1CN(C)CCCCNC1CC2(C1)CN(c1ccc3c(c1)C(=O)N(C1CCC(=O)NC1=O)C3=O)C2 (stereo not drawn) [Compound D250], the DC50 (Table 5B) is reported as less than 10 nM.

For COc1cc(-c2cn(C)c(=O)c3cnccc23)cc(OC)c1CN(C)C(=O)CCCCN1CC(Oc2ccc3c(c2)C(=O)N(C2CCC(=O)NC2=O)C3=O)C1 (stereo not drawn) [Compound D229], the DC50 (Table 5B) was less than 10 nM.

In the case of COc1cc(-c2cn(C)c(=O)c3cnccc23)cc(OC)c1CN1CCC2(CC1)CN(c1ccc3c(c1)C(=O)N(C1CC(=O)NC1=O)C3=O)C2 (stereo not drawn) [Compound D383], the DC50 (Table 5C) is reported as greater than 1000 nM.

For COc1cc(-c2cn(C)c(=O)c3cnccc23)cc(OC)c1CN1CCN(CCCCCOc2ccc3c(c2)C(=O)N(C2CCC(=O)NC2=O)C3=O)CC1 (stereo not drawn) [Compound D44, 5-((5-(4-(2,6-dimethoxy-4-(2-methyl-1-oxo-1,2-dihydro-2,7-naphthyridin-4-yl)benzyl)piperazin-1-yl)pentyl)oxy)-2-(2,6-dioxopiperidin-3-yl)isoindoline-1,3-dione formic acid], the DC50 (Table 5A) was less than 10 nM.

For COc1cc(-c2cc(C(F)F)c(=O)n(C)c2)cc(OC)c1C1CN(c2ccc3c(c2)C(=O)N(C2CCC(=O)NC2=O)C3)C1 (stereo not drawn) [Compound D455], the DC50 (Table 5C) was less than 10 nM.

COc1cc(-c2cn(C)c(=O)c3cnccc23)cc(OC)c1CN1CCN(CCCC#Cc2ccc3c(c2)C(=O)N(C2CCC(=O)NC2=O)C3=O)CC1 (stereo not drawn) [Compound D214] showed a DC50 (Table 5B) of less than 10 nM.

In the case of COc1cc(-c2cn(C)c(=O)c3cnccc23)cc(OC)c1Cn1cc(COCCOc2ccc3c(c2)C(=O)N(C2CCC(=O)NC2=O)C3=O)nn1 (stereo not drawn) [Compound D303], the DC50 (Table 5B) is reported as 10 to 100 nM.

In the case of COc1cc(-c2cn(C)c(=O)c3cnccc23)cc(OC)c1CN1CC2(CN(CCCC#Cc3ccc4c(c3)C(=O)N(C3CCC(=O)NC3=O)C4=O)C2)C1 (stereo not drawn) [Compound D215], the DC50 (Table 5B) is reported as less than 10 nM.

For COc1cc(-c2cn(C)c(=O)c3cnccc23)cc(OC)c1CN(C)CCn1cc(COC2CCN(c3ccc4c(c3)C(=O)N(C3CCC(=O)NC3=O)C4=O)CC2)nn1 (stereo not drawn) [Compound D278], the DC50 (Table 5B) was 10 to 100 nM.

With COc1cc(-c2cn(C)c(=O)c3cnccc23)cc(OC)c1CN1CCC2(CC1)CN(c1ccnc(C(=O)NC3CCC(=O)NC3=O)n1)C2 (stereo not drawn) [Compound D391] the DC50 (Table 5C) was 100 to 1000 nM.

COc1cc(-c2cn(C)c(=O)c3cnccc23)cc(OC)c1CN1CC(Oc2ccc3c(c2)C(=O)N(C2CCC(=O)NC2=O)C3)C1 (stereo not drawn) [Compound D378] showed a DC50 (Table 5C) of less than 10 nM.

Compound COc1cc(-c2cn(C)c(=O)c3cnccc23)cc(OC)c1CN1CC2(CC(CCOc3ccc4c(c3)C(=O)N(C3CCC(=O)NC3=O)C4=O)C2)C1 (stereo not drawn) [Compound D48, 5-(2-(2-(2,6-dimethoxy-4-(2-methyl-1-oxo-1,2-dihydro-2,7-naphthyridin-4-yl)benzyl)-2-azaspiro[3.3]heptan-6-yl)ethoxy)-2-(2,6-dioxopiperidin-3-yl)isoindoline-1,3-dione formic acid] has a DC50 (Table 5A) of 10 to 100 nM.

Compound COc1cc(-c2cn(C)c(=O)c3cnccc23)cc(OC)c1CN1CCC2(CC1)CN(c1ccc3c(c1)CN(C1CCC(=O)NC1=O)C3=O)C2 (stereo not drawn) [Compound D374] has a DC50 (Table 5C) of less than 10 nM.

With COc1cc(-c2cc(C(F)F)c(=O)n(C)c2C)cc(OC)c1CN1CCC(CN2CCC3(CC2)CN(c2ccc4c(c2)C(=O)N(C2CCC(=O)NC2=O)C4)C3)CC1 (stereo not drawn) [Compound D410] the DC50 (Table 5C) was less than 10 nM.

COc1cc(-c2cn(C)c(=O)c3cnccc23)cc(OC)c1CN1CC(N(C)Cc2cccc3c2C(=O)N(C2CCC(=O)NC2=O)C3=O)C1 (stereo not drawn) [Compound D28, 4-(((1-(2,6-dimethoxy-4-(2-methyl-1-oxo-1,2-dihydro-2,7-naphthyridin-4-yl)benzyl)azetidin-3-yl)(methyl)amino)methyl)-2-(2,6-dioxopiperidin-3-yl)isoindoline-1,3-dione] gave a DC50 (Table 5A) of 100 to 1000 nM.

For COc1cc(-c2cn(C)c(=O)c3cnccc23)cc(OC)c1CN(C)C(=O)CCCCN1CCC2(CC1)CCN(c1ccc3c(c1)C(=O)N(C1CCC(=O)NC1=O)C3=O)C2 (stereo not drawn) [Compound D202], the DC50 (Table 5B) was less than 10 nM.

COc1cc(-c2cn(C)c(=O)c3cnccc23)cc(OC)c1CN1CCC2(CC1)CN(C(=O)CC#Cc1ccc3c(c1)C(=O)N(C1CCC(=O)NC1=O)C3=O)C2 (stereo not drawn) [Compound D318] was tested, and the DC50 (Table 5B) was less than 10 nM.

— US11414416B1, “Compounds and uses thereof” (Foghorn Therapeutics Inc., priority 2019, dated 2022)
